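Values below derive from 48-hour exposures of cells grown in 96-well plates, with endpoints linearly interpolated between the two concentrations bracketing the appropriate inhibition level. The concentration for 50% growth inhibition is given as GI50. TGI: concentration producing complete growth inhibition.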
What was measured:
Test in all cases: NCI anticancer screen, dose series, 48 h
OVCAR-5 ovarian = tested on: OVCAR-5 ovarian
CAKI-1 renal = tested on: CAKI-1 renal
MOLT-4 leukemia = tested on: MOLT-4 leukemia
NCI-H460 lung = tested on: NCI-H460 lung
SK-MEL-2 melanoma = tested on: SK-MEL-2 melanoma
KM12 colon = tested on: KM12 colon
SF-268 CNS = tested on: SF-268 CNS
SK-OV-3 ovarian = tested on: SK-OV-3 ovarian
IGROV1 ovarian = tested on: IGROV1 ovarian
NCI-H522 lung = tested on: NCI-H522 lung

SMILES	GI50 (OVCAR-5 ovarian) [µM]	TGI (OVCAR-5 ovarian) [µM]	GI50 (CAKI-1 renal) [µM]	TGI (CAKI-1 renal) [µM]	GI50 (MOLT-4 leukemia) [µM]	TGI (MOLT-4 leukemia) [µM]	GI50 (NCI-H460 lung) [µM]	TGI (NCI-H460 lung) [µM]	GI50 (SK-MEL-2 melanoma) [µM]	TGI (SK-MEL-2 melanoma) [µM]	GI50 (KM12 colon) [µM]	TGI (KM12 colon) [µM]	GI50 (SF-268 CNS) [µM]	TGI (SF-268 CNS) [µM]	GI50 (SK-OV-3 ovarian) [µM]	TGI (SK-OV-3 ovarian) [µM]	GI50 (IGROV1 ovarian) [µM]	TGI (IGROV1 ovarian) [µM]	GI50 (NCI-H522 lung) [µM]	TGI (NCI-H522 lung) [µM]
CCCN(CCC)c1ccc(/C=N/NC(=O)c2cccnc2)c(Cl)c1	1.22	4.73	12.1	58	12.9	46.2	3.63	17.2	14.2	30.4	7.19	25.7	15.5	38.9	13.9	45.5	1.21	15.6	6.64	23.3
Cc1ccccc1CN1CC=c2ccccc2=N1		> 100		> 100				> 100		> 100		> 100		> 100		> 100		> 100		
CN(C)CC1(C)CC/C(=C\c2ccccc2)C1=O (stereo not given)		> 100		> 100		> 100		> 100		> 100		> 100		> 100				> 100		> 100
CN(C)CCNC(=O)c1cccc2[nH]c(-c3ccccc3)nc12		34.6		92.9		59.6		39.8		32.5		66.4		46.3		56.3		50.9		
N.N.NCCCCN.O=C([O-])C1(C(=O)[O-])CCC1.O=C([O-])C1(C(=O)[O-])CCC1.[Pt+4].[Pt+4]	> 100	> 100	> 100	> 100	33.5	> 100	48.5	> 100	> 100	> 100	> 100	> 100	97.4	> 100	> 100	> 100	> 100	> 100	> 100	> 100
NCc1nnn(Cc2ccccc2)c1N		> 100		> 100		> 100		> 100		> 100		> 100		> 100		> 100		> 100		> 100
COc1ccc2c(c1)CCC1C2CC[C@]2(C)/C(=N/OC(=O)Cc3ccccc3)CCC12 (stereo not given in full)	46.6	> 100	16	30.9	17.2	35.8	14.6	30.4	18.6	48.6	15	30.4	18.7	34.4	28.7	72.1	14.7	29.8	12.2	32.8
O=C(Nc1nc2ncn(CC(COc3ccccc3)OC(=O)c3ccccc3)c2c(=O)[nH]1)c1ccccc1 (stereo not given)		> 100		> 100		> 100				> 100		> 100				> 100		> 100		> 100
O=c1cnn2c(n1)sc1ccc3ccccc3c12		> 100		> 100		> 100		> 100		> 100		> 100		> 100		> 100		> 100		
O=C(COc1ccccc1)NS(=O)(=O)c1ccccc1		> 100		> 100		> 100		> 100		> 100		> 100		> 100		> 100		> 100		> 100
COC(=O)C1=C(C(=O)OC)C23C=C(C)C1C2=C(C)C1(CC1)[C@@](C)(O)C3=O (stereo not given in full)	0.365	8.89			6.62	> 100	0.203	1.19	0.25	0.63	0.868	11	0.273	3.07	0.25	0.7	0.275		0.495	5.75
COc1ccc(C(c2c(O)c3ccccc3n(C)c2=O)c2c(O)c3ccccc3n(C)c2=O)cc1		> 100		> 100		> 100		> 100		> 100		> 100		> 100		> 100		> 100		60
NS(=O)(=O)c1ccc(N2N=C3c4ccccc4CC3C2c2ccc(Cl)cc2)cc1 (stereo not given)	15.9	56.5	18.2	32.8	7.58	> 100	19.7	41.8	8.23	28.4	5.54	49.8	22.1	54	12.4	49.4	3.48	19.6	8.44	28.6
O=C1C(=O)C(Br)(Br)C(Br)=C1Br		26.8		34.9		63		> 100		33.7		28.6				> 100		> 100		6.68
Nc1c(C(=O)Nc2ccccc2Cl)sc2nc3c(cc12)CCCCCC3	6.88	> 100	3.74	> 100			3.32	13.9	2.77	23.1	3.67	> 100	3.44	16.7	2.65	7.88			13.6	91.1
COc1cc2nc(Nc3cccc(F)c3)nc(Nc3cc(C)[nH]n3)c2cc1OC	1.76	3.2	1.76	3.19	1.89	5.76	1.83	3.74	2.1	4.08	1.64	3.32	1.82	3.46	1.86	3.37			1.92	4.94
CCCCCCCC/C=C\CCCCCCCC(=O)NCCN(CCN)C(=O)CCCCCCC/C=C\CCCCCCCC		> 100		> 100		> 100		> 100						> 100		> 100		> 100		
